Test results taken from paper PMC8790579, “Activity-Based Protein Profiling for the Identification of Novel Carbohydrate-Active Enzymes Involved in Xylan Degradation in the Hyperthermophilic Euryarchaeon Thermococcus sp. Strain 2319x1E” (Frontiers in Microbiology, 2022).

Legend:
EGIDFPOO_00674 = system: T1, EGIDFPOO_00674; assay: nitrophenol release, absorbance; format: biochemical, Thermococcus sp. 2319x1E; settings: pH 8.0 (50 mM Tris-HCl), 100°C
T1 construct: C-terminal 6xHis-tag, pET-28b(+) NcoI/EcoRI, E. coli Rosetta; Ni-IDA purified; primers encode N-term MGYQKFGYHFHA and C-term NGASIGPGF before HHHHHH; GH57 domain 52-300, predicted catalytic E153/D253

EGIDFPOO_00532 = system: T2, EGIDFPOO_00532; assay: nitrophenol release, absorbance; format: biochemical, Thermococcus sp. 2319x1E; settings: pH 8.0, 100°C; refolding buffer with 2 M urea, 10% sucrose
T2 construct: N-terminal 6xHis-tag, pET-28b(+) NheI/XhoI, E. coli Rosetta; primers encode N-term MLVFPDSFL and C-term KYGLPEL

Row | Km (EGIDFPOO_00674) | Km (EGIDFPOO_00532) | SMILES
1 | 2.57 mM | – | CC(=O)Oc1ccc([N+](=O)[O-])cc1 [PNPA]
2 | – | 0.18 mM | O=[N+]([O-])c1ccc(O[C@@H]2O[C@H](CO)[C@@H](O)[C@H](O)[C@H]2O)cc1 [PNPG]
3 | – | 4.38 mM | O=[N+]([O-])c1ccc(O[C@@H]2OC[C@@H](O)[C@H](O)[C@H]2O)cc1 [PNPX]
4 | – | 6.23 mM | O=[N+]([O-])c1ccccc1O[C@@H]1O[C@H](CO)[C@H](O)[C@H](O)[C@H]1O [ONPG]
